Experiments:
[1] = system: hair follicles; assay: Relative growth of hair follicles compared to control, OKG versus Ornithine and alpha-Ketoglutarate; type: cell-based, human; details: for Growth of hair follicles - elongation ± standard error, relative to control (100): after 6 days of cultivation
Description: (§1) Human anagen hair follicles were isolated from scalp skin and transferred for cultivation in sterile 24 well plates using a modified Williams' Medium E. Cultivation took place for nine days, while the experimental treatment of the follicles started 24 hours from the beginning of the cultivation.
(§2) Hair follicles taken from a single donor were selected for the experiments after 18 h of cultivation. Only those follicles showing a good vital stage and a growth of not less than 0.2 mm have been considered suitable to be maintained in culture. 4 groups were prepared comprising 9 follicles, plated at the density of 3 hair follicles/plate. […] The growth of the hair follicles was studied by microphotography and subsequently determined by image analysis. All the hair follicles were photographed every two days.
In order to show the superiority of OKG compared to Ornithine on one hand and alpha-Ketoglutarate on the other, the influence of these compounds on the metabolism of hair follicles was studied under the conditions as explained in Examples 1 and 2. […] Examples 3 and 4 are according to the invention, examples C1-C4 are shown for comparison.

[2] = system: A 549 cells; details: disclosed in WO 06/075924 A1; cited from earlier work
[3] = system: hair follicles; assay: Histological analysis of hair follicles (anagen/catagen phase); type: cell-based, human; details: after 9 days of cultivation
Excerpt: The experiment according to Examples 1 and 2 was terminated after 9 days of cultivation. Subsequently, the hair follicles were subjected to a histological analysis by colouring with haematossilin and eosin in order to verify the morphological state of the dermopapilla.

[4] = system: cells in the dermopapilla; assay: Number of proliferative (Ki-67) and apoptotic (Apoptag) cells in the dermopapilla; type: cell-based, human; details: after three days of cultivation
Description: After three days of cultivation samples were taken in order to determine the relative number of cells being in the proliferative or apoptotic state. The cells in apoptotic state were determined using an Apoptag Fluorescein In-situ Apoptosis Detection Kit (Chemicon International cod. S7110), while those in proliferative state were marked with the antibody Ki-67 (monoclonal mouse anti-human Ki-67, clone MIB1, Dako Cytomation cod. M7240). The total number of cells in the dermopapilla was analysed by marking their nuclei by means of DAPI (4′, 6-diamidino-2-phenylindol dihydrochloride). The percentage of cells in the proliferative or apoptotic stage compared to the total number of cells was determined again by image analysis.

[5] = system: Human anagen hair follicles; assay: Growth (elongation) of cultivated human hair follicles; type: cell-based
Description: as §1, §2

NCCC[C@H](N)C(=O)O [Ornithine]
Growth of hair follicles - elongation ± standard error, relative to control (100) ([1]; Conc. 0.001% b.w.): 105.1 ± 5.1% | Growth of hair follicles - elongation ± standard error, relative to control (100) ([1]; Conc. 0.01% b.w.): 102.1 ± 5.0%

O=C(O)CCC(=O)C(=O)O [alpha-Ketoglutarate]
Growth of hair follicles - elongation ± standard error, relative to control (100) ([1]; Conc. 0.001% b.w.): 103.1 ± 3.1% | Growth of hair follicles - elongation ± standard error, relative to control (100) ([1]; Conc. 0.01% b.w.): 103.8 ± 3.8%

Ornithine Ketoglutarate [OKG]
Effect on proliferation of A 549 cells (in words) [2]: stimulate the proliferation of A 549 cells | Hair follicle stimulation compared to Ornithine and alpha-Ketoglutarate taken alone (in words) ([1]; 0.001 and 0.01% b.w., 6 days): superiority and synergistic effect | Growth of hair follicles - elongation ± standard error, relative to control (100) ([1]; Conc. 0.001% b.w.): 112.7 ± 3.1% | Growth of hair follicles - elongation ± standard error, relative to control (100) ([1]; Conc. 0.01% b.w.): 110.4 ± 4.0% | Hair follicles in Catagen phase ([3]; OKG 0.1% b.w., control 44%): 22% | Hair follicles in Anagen phase ([3]; OKG 0.1% b.w., control 56%): 78% | Effect on decline to the catagen phase (in words) [3]: significantly delayed the decline to the catagen phase | Number of cells in Apoptotic stage ± standard error (of total cells) ([4]; OKG 0.1% b.w., control 0.48%): 0.17% ± 0.073 | Number of cells in Proliferative stage ± standard error (of total cells) ([4]; OKG 0.1% b.w., control 10.74%): 10.51% ± 0.17 | Effect on number of apoptotic cells (in words) [4]: significantly reduces the number of apoptotic cells | Growth of hair follicles - elongation ± standard error ([5]; OKG 0.005% b.w. in cultivation medium, day 1 of cultivation): 0 mm | Growth of hair follicles - elongation ± standard error ([5]; OKG 0.005% b.w. in cultivation medium, day 3 of cultivation): 0.84 ± 0.022 mm | Growth of hair follicles - elongation ± standard error ([5]; OKG 0.005% b.w. in cultivation medium, day 5 of cultivation): 1.50 ± 0.078 mm | Growth of hair follicles - elongation ± standard error ([5]; OKG 0.005% b.w. in cultivation medium, day 7 of cultivation): 1.98 ± 0.155 mm | Growth of hair follicles - elongation ± standard error ([5]; OKG 0.005% b.w. in cultivation medium, day 9 of cultivation): 2.35 ± 0.253 mm | Growth of hair follicles - elongation ± standard error ([5]; OKG 0.01% b.w. in cultivation medium, day 1 of cultivation): 0 mm | Growth of hair follicles - elongation ± standard error ([5]; OKG 0.01% b.w. in cultivation medium, day 3 of cultivation): 0.88 ± 0.024 mm | Growth of hair follicles - elongation ± standard error ([5]; OKG 0.01% b.w. in cultivation medium, day 5 of cultivation): 1.63 ± 0.067 mm | Growth of hair follicles - elongation ± standard error ([5]; OKG 0.01% b.w. in cultivation medium, day 7 of cultivation): 2.25 ± 0.086 mm | Growth of hair follicles - elongation ± standard error ([5]; OKG 0.01% b.w. in cultivation medium, day 9 of cultivation): 2.77 ± 0.163 mm | Effect on growth of the hair follicles (in words) ([5]; addition of OKG 0.005 to 0.01% b.w. versus control): significant increase in growth of the hair follicles
